IC50 and ED50 data for three molecules are collected here from US5332757A, “Oxime derivatives” (Zeneca Limited, priority 1992, dated 1994).

For assay [1], the target named is T1, 5-LO (Homo sapiens, UniProt P09917).
T1 construct: incubating a test compound with heparinised human blood, prior to challenge with the calcium ionophore A23187; from tissue; host or cells: heparinised human blood (endogenous enzyme of the blood cells)
T1 sequence (P09917 1-674): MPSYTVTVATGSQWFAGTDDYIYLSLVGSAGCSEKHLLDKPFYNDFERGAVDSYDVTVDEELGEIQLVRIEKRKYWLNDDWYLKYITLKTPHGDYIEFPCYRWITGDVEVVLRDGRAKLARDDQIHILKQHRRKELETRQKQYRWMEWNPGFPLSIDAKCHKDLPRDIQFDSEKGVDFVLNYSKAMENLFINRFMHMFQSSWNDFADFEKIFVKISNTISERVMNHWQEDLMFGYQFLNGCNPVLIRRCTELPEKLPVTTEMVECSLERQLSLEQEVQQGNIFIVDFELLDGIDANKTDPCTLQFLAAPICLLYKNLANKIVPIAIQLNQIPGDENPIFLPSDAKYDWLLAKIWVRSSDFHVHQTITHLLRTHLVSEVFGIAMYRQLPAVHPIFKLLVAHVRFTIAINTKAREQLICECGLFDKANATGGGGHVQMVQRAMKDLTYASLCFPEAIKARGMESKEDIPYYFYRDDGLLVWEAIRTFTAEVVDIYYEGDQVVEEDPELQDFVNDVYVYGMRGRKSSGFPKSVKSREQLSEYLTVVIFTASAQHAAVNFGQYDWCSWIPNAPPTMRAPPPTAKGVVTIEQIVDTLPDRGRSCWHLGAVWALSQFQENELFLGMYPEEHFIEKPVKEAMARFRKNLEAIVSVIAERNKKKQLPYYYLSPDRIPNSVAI
As to the kind of experiment: test a) in vitro assay, heparinised human blood challenged with calcium ionophore A23187, LTB4 radioimmunoassay. The class given is cell-based. The procedure:
a) An in vitro assay system involving incubating a test compound with heparinised human blood, prior to challenge with the calcium ionophore A23187 and then indirectly measuring the inhibitory effects on 5-LO by assaying the amount of LTB4 using specific radioimmunoassays described by Carey and Forder (Prostaglandins, Leukotrienes Med., 1986, 22, 57; Prostaglandins, 1984, 28, 666; Brit. J. Pharmacol., 1985, 84, 34P) which involves the use of a protein-LTB4 conjugate produced using the procedure of Young et alia (Prostaglandins, 1983, 26(4), 605-613). The effects of a test compound on the enzyme cyclooxygenase (which is involved in the alternative metabolic pathway for arachidonic acid and gives rise to prostaglandins, thromboxanes and related metabolites) may be measured at the same time using the specific radioimmunoassay for thromboxane B2 (TxB2) described by Carey and Forder (see above). This test provides an indication of the effects of a test compound against 5-LO and also cyclooxygenase in the presence of blood cells and proteins. It permits the selectivity of the inhibitory effect on 5-LO or cyclooxygenase to be assessed.

For assay [2], the target named is T2, 5-LO (Rattus norvegicus, UniProt P12527).
T2 construct: within an air pouch generated within the subcutaneous tissue of the back of male rats; from tissue; host or cells: living male rats, cells of the zymosan-inflamed subcutaneous air pouch
T2 sequence (P12527 1-673): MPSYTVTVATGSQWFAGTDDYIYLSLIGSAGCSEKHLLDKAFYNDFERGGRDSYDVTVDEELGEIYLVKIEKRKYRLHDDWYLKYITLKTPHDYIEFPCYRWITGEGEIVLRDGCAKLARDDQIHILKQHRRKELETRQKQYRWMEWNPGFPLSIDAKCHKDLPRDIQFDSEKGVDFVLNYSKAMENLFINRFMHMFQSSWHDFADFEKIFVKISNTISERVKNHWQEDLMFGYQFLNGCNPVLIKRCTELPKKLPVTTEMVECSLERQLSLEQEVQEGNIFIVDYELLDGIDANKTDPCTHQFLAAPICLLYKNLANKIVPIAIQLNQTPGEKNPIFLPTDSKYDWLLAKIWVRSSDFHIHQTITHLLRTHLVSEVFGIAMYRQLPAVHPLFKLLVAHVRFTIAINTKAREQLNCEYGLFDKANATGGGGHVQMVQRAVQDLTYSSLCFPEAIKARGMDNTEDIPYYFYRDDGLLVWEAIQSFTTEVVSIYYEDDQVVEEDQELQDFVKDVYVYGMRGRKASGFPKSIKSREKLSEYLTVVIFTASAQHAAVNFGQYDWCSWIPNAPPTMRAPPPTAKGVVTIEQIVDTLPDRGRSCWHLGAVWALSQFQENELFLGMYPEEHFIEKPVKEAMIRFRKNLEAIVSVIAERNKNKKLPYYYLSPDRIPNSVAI
As to the kind of experiment: test c) in vivo zymosan-induced liberation of LTB4 in rat air pouch. On the set-up: species or system male rats. The conditions noted are these: 3 h; test c), oral. The procedure: c) An in vivo system involving measuring the effects of a test compound administered orally against the liberation of LTB4 induced by zymosan within an air pouch generated within the subcutaneous tissue of the back of male rats. The rats are anaesthetised and air pouches are formed by the injection of sterile air (20 ml). A further injection of air (10 ml) is similarly given after 3 days. At 6 days after the initial air injection the test compound is administered (usually orally as the suspension produced when a solution of the test compound in dimethylsulphoxide is added to hydroxypropylmethylcellulose), followed by the intrapouch injection of zymosan (1 ml of a 1% suspension in physiological saline). After 3 hours the rats are killed, the air pouches are lavaged with physiological saline, and the specific radioimmunoassay described above is used to assay LTB4 in the washings. This test provides an indication of inhibitory effects against 5-LO in an inflammatory milieu.

Regarding `CO[C@]1(c2cc(F)cc(Sc3ccc(/C(C)=N/O)cc3)c2)CCO[C@@H](C)C1` [Example 26, (E)-4'-{5-fluoro-3-[(2S,4R)-4-methoxy-2-methyltetrahydropyran-4-yl]phenylthio}acetophenone oxime], the IC50 on 5-LO [1] is 0.04 µM. Further, the 50% effective dose (ED50) on 5-LO [2] was about 0.05 mg/kg.

`CO/N=C(\C)c1ccc(Sc2cc(F)cc(C3(OC)CCOCC3)c2)cc1` [Example 2, (E)-4'-[5-fluoro-3-(4-methoxytetrahydropyran-4-yl)phenylthio]acetophenone oxime O-methyl ether]: the IC50 on 5-LO [1] is 0.11 µM. Further, the ED50 on 5-LO [2] is about 0.5 mg/kg.

For the molecule `COC1(c2cc(F)cc(Sc3ccc(/C(C)=N/OCC#N)cc3)c2)CCOCC1` [Example 5, (E)-4'-[5-fluoro-3-(4-methoxytetrahydropyran-4-yl)phenylthio]acetophenone oxime O-cyanomethyl ether], the half-maximal inhibitory concentration (IC50) at 5-LO [1] was found to be 0.03 µM. Moreover, the median effective dose (ED50) at 5-LO [2] is about 0.5 mg/kg.
